“And” between values parts separate entries of the source, which are not always exact repeats. Equal entries are not always repeated. Where two headings read alike, the source gives them in different places.
Legend:
[1] = system: strain IMB-1; assay: 14C-MeBr oxidation assay on washed cell suspensions; format: cell-based, strain IMB-1 (ATCC 202197); details: for MeBr oxidized: cells grown on the substrate indicated; for rate of MeBr oxidation, normalized for cell densities: cells grown on methylamine
[2] = system: strain IMB-1; assay: Growth of strain IMB-1 on substrates in mineral salts medium (Balch tubes)
[3] = system: strain IMB-1; assay: Batch oxidation of MeBr in bottles containing cell suspensions of strain IMB-1; format: cell-based, strain IMB-1 (ATCC 202197); set-up: MeBr Oxidation Rate per Cell: unit not given here; details: for CO2 Production Rate: corrected for respiration
[4] = system: strain IMB-1; assay: Closed-system re-circulating bioreactor with washed cell suspension of strain IMB-1; format: cell-based, strain IMB-1 (ATCC 202197)
Protocol: Procedures for forming the methylotrophic bacterium 18 within the bioreactor 10 include, for example and without limitation, strain IMB-1 being grown aerobically in batch mode using pulsed additions of MeBr for use as an inoculum for the bioreactor. Additions of MeBr from about 0.01 to about 0.1 g were made approximately daily for several weeks. Cells (1 L) were grown to elevated density (approximately 1.5×10^8 cells/cm^3) in stoppered, 2-L flasks with rotary shaking. Growth occurred in mineral salts media containing mono- and dibasic phosphate (ΣPO4^31 '=1.4 mM) as well as sulfate and trace minerals (see e.g. Schaefer, J. K. and R. S. Oremland, Oxidation of Methyl Halides by the Facultative Methylotroph Strain IMB-1. Appl. Environ. Microbiol. 65 (1999): pp 5035-5041) the disclosure of which is hereby incorporated by reference. Media concentrations were tripled in order to provide additional nutrients and buffer capacity. Cells were grown at about 28° C. Cells were washed and re-suspended to 0.5 L in fresh media and transferred to the gas-washing bottle of the bioreactor having an initial cell density approximately equal to 3×10^8 cells/cm^3. Once the methylotrophic bacterium 18 constitutes part of the biofilter 16, the methyl halide is pumped from the reservoir 14 to the biofilter 16 for direct oxidation.
The biofilter 16 includes a mass of methylotrophic bacteria 18 within a container for bio-degradation of the methyl halides 30. The biofilter 16 constitutes the active surface of the bioreactor 10. The initial cell density was 3×10^8 cells/cm^3. The peristaltic pump 12 was used to circulate the methyl halide 30 gas in this system at a flow rate of 0.2 liter/min through inert rubber tubing (Pharmed), manufactured by Cole Parmer of Vernon Hills, Ill., and having 0.4 cm I.D. Stainless steel tubing (0.4 cm I.D.) was used to connect the components of the bioreactor 10. Methane (CH4) was added (3.2 g/m^3) to serve as a control and an internal standard.
A closed-system bioreactor was built using the general design of FIG. 1 and employed for testing on a laboratory bench. The bioreactor was started with 0.5 L of growing culture of methylotrophic bacteria strain IMB-1 and removed MeBr at fumigation concentrations (>17 g/m^3) from re-circulating air. Strain IMB-1 grew to high cell densities (5×10^9 cells/cm^3) in the bioreactor within several days using pulsed additions of MeBr as the sole carbon and energy source. The addition of the MeBr was done as a gas. Bacterial oxidation of MeBr produced CO2 and hydrobromic acid (HBr) which could be neutralized by addition of NaOH. Strain IMB-1 was capable of sustained oxidation of large amounts of MeBr (16 g in 46 days). […] Oxidation of MeBr was unaffected by the presence of elevated dissolved solutes (>26 g/kg) that approached the salinity of seawater. Strain IMB-1 grown on MeBr was 7 times more efficient at removing MeBr from the headspace of flasks than cultures grown on glucose (55 vs. 8×10^−15 g MeBr/cell/hr, respectively). An open-system bioreactor having 10 L of growing culture used a continuous supply of MeBr (21.2 g/m^3 in air). Growth of strain IMB-1 was continuous and 80 g of MeBr was removed from the air supply in 15 days.

[5] = system: strain IMB-1; assay: Open-system bioreactor, 10 L growing culture, continuous supply of MeBr; format: cell-based, strain IMB-1 (ATCC 202197); details: in 15 days; 21.2 g/m^3 MeBr in air, 10 L culture
From the text: The bioreactor may be designed to maximize the rate of oxidation of methyl bromide, particularly when using strain IMB-1. For example, without limitation, a twelve (12)-liter fermenter may be used to grow 10-L of cells of IMB-1 in batch culture for flow-through. Preferably, the fermenter is used in continuous-flow mode to grow IMB-1 using 21.2 g/m^3 MeBr as the feedstock. Use of strain 1 IMB-1 in a bioreactor is used in the present invention to directly oxidize various concentrations of the methyl halide, preferably methyl bromide or methyl iodide, for example without limitation high concentrations of approximately 30,000 ppm or 125 g/m^3. Direct oxidation of methyl bromide is most preferred.
A closed-system bioreactor was built using the general design of FIG. 1 and employed for testing on a laboratory bench. The bioreactor was started with 0.5 L of growing culture of methylotrophic bacteria strain IMB-1 and removed MeBr at fumigation concentrations (>17 g/m^3) from re-circulating air. Strain IMB-1 grew to high cell densities (5×10^9 cells/cm^3) in the bioreactor within several days using pulsed additions of MeBr as the sole carbon and energy source. The addition of the MeBr was done as a gas. Bacterial oxidation of MeBr produced CO2 and hydrobromic acid (HBr) which could be neutralized by addition of NaOH. […]

[6] = system: Bacillus anthracis (anthrax) and its spores; details: cited from earlier work
[7] = 0 cells
[8] = substrate as electron donor / carbon and energy source
[9] = 3 × 10^7 cells/cm^3, 0.76 mg MeBr added
[10] = 3 × 10^7 cells/cm^3, 1.36 mg MeBr added
[11] = 3 × 10^7 cells/cm^3, 5.30 mg MeBr added
[12] = 3 × 10^8 cells/cm^3, 0.76 mg MeBr added
[13] = 3 × 10^8 cells/cm^3, 1.36 mg MeBr added
[14] = 3 × 10^8 cells/cm^3, 5.30 mg MeBr added
[15] = 3 × 10^9 cells/cm^3, 0.76 mg MeBr added
[16] = 3 × 10^9 cells/cm^3, 1.36 mg MeBr added
[17] = 3 × 10^9 cells/cm^3, 5.30 mg MeBr added

CF [methyl fluoride]
MeBr oxidized [1]: 0.0 pmol/10^6 cells/h | metabolized by strain IMB-1 [2]: not metabolized | effect on uptake of MeBr or growth of IMB-1 on MeBr ([2]; 2-22 μmol/tube added): did not affect | growth of strain IMB-1 on the substrate (in words) [2, 8]: no growth occurred

CN(C)C [trimethylamine]
growth of strain IMB-1 on the substrate (in words) [2, 8]: support growth

C [methane]
growth of strain IMB-1 on the substrate (in words) [2, 8]: no growth occurred

CBr [MeBr, methyl bromide]
MeBr oxidized [1]: 1.4 pmol/10^6 cells/h | time to removal of MeBr ([3]; 0.76 mg (1.2 mM in the liquid), bottles containing 1.5×10^8 cells): ≤ 190 h | time to removal of MeBr ([3]; 0.76 mg, bottles containing 10-fold more cells): ≤ 35 h | time to removal of MeBr ([3]; 0.76 mg, bottles containing 100-fold more cells (3×10^9 cells/cm^3)): ≤ 2 h | time to oxidation of MeBr ([3]; 1.2 mM in the liquid, cells grown on MeBr (2.8×10^8 cells)): within one hour | time to remove a similar amount of MeBr ([3]; 1.2 mM in the liquid, glucose-grown cells (3.6×10^8 cells)): greater than 5 hours | time to removal of MeBr ([3]; 1.36 mg MeBr, 3×10^9 cells/cm^3): ≤ 7 h | MeBr Oxidation Rate [3, 9]: 0.063 mg/day | MeBr Oxidation Rate Constant [3, 9]: 0.083 per d | MeBr Oxidation Rate per Cell [3, 9]: 4.1 ×10^10 | CO2 Production Rate [3, 9]: 0.031 mg/day | MeBr Oxidation Rate [3, 10]: 0 mg/day | MeBr Oxidation Rate Constant [3, 10]: 0 per d | MeBr Oxidation Rate per Cell [3, 10]: 0 ×10^10 | CO2 Production Rate [3, 10]: 0.002 mg/day | MeBr Oxidation Rate [3, 11]: 0 mg/day | MeBr Oxidation Rate Constant [3, 11]: 0 per d | MeBr Oxidation Rate per Cell [3, 11]: 0 ×10^10 | CO2 Production Rate [3, 11]: 0 mg/day | MeBr Oxidation Rate [3, 12]: 0.555 mg/day | MeBr Oxidation Rate Constant [3, 12]: 0.73 per d | MeBr Oxidation Rate per Cell [3, 12]: 3.7 ×10^10 | CO2 Production Rate [3, 12]: 0.224 mg/day | MeBr Oxidation Rate [3, 13]: 0.180 mg/day | MeBr Oxidation Rate Constant [3, 13]: 0.13 per d | MeBr Oxidation Rate per Cell [3, 13]: 1.2 ×10^10 | CO2 Production Rate [3, 13]: 0.189 mg/day | MeBr Oxidation Rate [3, 14]: 0 mg/day | MeBr Oxidation Rate Constant [3, 14]: 0 per d | MeBr Oxidation Rate per Cell [3, 14]: 0 ×10^10 | CO2 Production Rate [3, 14]: 0 mg/day | MeBr Oxidation Rate [3, 15]: 6.53 mg/day | MeBr Oxidation Rate Constant [3, 15]: 8.6 per d | MeBr Oxidation Rate per Cell [3, 15]: 4.4 ×10^10 | CO2 Production Rate [3, 15]: 5.025 mg/day | MeBr Oxidation Rate [3, 16]: 3.52 mg/day | MeBr Oxidation Rate Constant [3, 16]: 2.59 per d | MeBr Oxidation Rate per Cell [3, 16]: 2.3 ×10^10 | CO2 Production Rate [3, 16]: 1.990 mg/day | MeBr Oxidation Rate [3, 17]: 6.07 mg/day | MeBr Oxidation Rate Constant [3, 17]: 1.14 per d | MeBr Oxidation Rate per Cell [3, 17]: 4.0 ×10^10 | CO2 Production Rate [3, 17]: 2.696 mg/day | MeBr removal from the headspace of flasks per cell ([3]; cultures grown on glucose): 8 ×10^−15 g MeBr/cell/hr | MeBr removal from the headspace of flasks per cell ([3]; strain IMB-1 grown on MeBr): 55 ×10^−15 g MeBr/cell/hr | time to consumption of added MeBr ([4]; 0.21 g added MeBr, by the third day of operation): ≤ 4 h | reduction of methyl bromide concentration during a single pass through the filter ([4]; after 2 weeks operation): up to 5 g/m^3 | time to removal of all added MeBr ([4]; after several equivalent additions of 9 g/m^3 MeBr): approximately 6 hours | time to removal of added MeBr ([4]; first addition of 0.21 g MeBr): 24 h | amount of MeBr oxidized ([4]; in 46 days, pulses of 0.21 g up to three times a day): 16 g and 16.2 g | time to oxidation of initial levels of methyl bromide ([4]; initial 9 g/m^3, washed cell suspensions): ≤ 24 h | amount of MeBr removed from the air supply [5]: 80 g | killing of B. anthracis and its spores ([6]; Kolb and Schneiter 1950): kill | level at which methyl bromide functions as a microbicide and a pesticide ([6]; Schade and King 1977, tree nuts): about 25,000 ppm | CO2 Production Rate ([7]; 0.76 mg MeBr added): 0 mg/day | MeBr Oxidation Rate ([7]; 0.76 mg MeBr added): 0.029 mg/day | CO2 Production Rate ([7]; 1.36 mg MeBr added): 0 mg/day | MeBr Oxidation Rate ([7]; 1.36 mg MeBr added): 0.062 mg/day | CO2 Production Rate ([7]; 5.30 mg MeBr added): 0 mg/day | MeBr Oxidation Rate ([7]; 5.30 mg MeBr added): 0.208 mg/day | growth of strain IMB-1 on the substrate (in words) [2, 8]: grow using MeBr as a sole source of carbon and energy

CI [methyl iodide]
rate of MeBr oxidation, normalized for cell densities ([1]; cultures incubated with 2 μmoles Mel): 1.4 pmol/10^6 cells/h | rate of MeBr oxidation, normalized for cell densities ([1]; cultures incubated with 5 μmoles Mel): 1.1 pmol/10^6 cells/h | rate of MeBr oxidation, normalized for cell densities ([1]; cultures incubated with 8 μmoles Mel): 1.1 pmol/10^6 cells/h | rate of MeBr oxidation, normalized for cell densities ([1]; cultures incubated with 10 μmoles Mel): 1.4 pmol/10^6 cells/h | MeBr oxidized [1]: 2.4 pmol/10^6 cells/h | growth of strain IMB-1 on the substrate (in words) [2, 8]: Growth was also obtained

CNC [dimethylamine]
growth of strain IMB-1 on the substrate (in words) [2]: support growth

O=CO [formate]
growth of strain IMB-1 on the substrate (in words) [2]: no growth occurred

— patent US6916446B1, “Bioreactor method, apparatus and product thereby” (The United States of America as represented by the …, priority 2002, dated 2005)
